Converted amounts (≈) assume the structure as drawn.
Legend:
[1] = tested on: P. aeruginosa ATCC 27853; experiment: microbe, parasite or virus in culture; assay type: cell-based; settings: Pseudomonas aeruginosa, ATCC27853, read-out: Minimum inhibitory concentration, P. aeruginosa ATCC 27853
[2] = tested on: P. aeruginosa CDC-0095; experiment: microbe, parasite or virus in culture; assay type: cell-based; settings: Pseudomonas aeruginosa, CDC0095, read-out: Minimum inhibitory concentration, P. aeruginosa CDC-0095
[3] = tested on: P. aeruginosa (ΔmexAB-oprM); experiment: Broth microdilution MIC in iron-depleted CAMHB (IDM); assay type: cell-based; settings: Pseudomonas aeruginosa; iron-depleted CAMHB (IDM); […]; read-out: Minimum inhibitory concentration, P. aeruginosa ΔmexAB-oprM
[4] = tested on: P. aeruginosa ATCC 35151; experiment: microbe, parasite or virus in culture; assay type: cell-based; settings: Pseudomonas aeruginosa, ATCC35151, read-out: Minimum inhibitory concentration, P. aeruginosa ATCC 35151
[5] = tested on: A. baumannii ATCC 19606; experiment: microbe, parasite or virus in culture; assay type: cell-based; settings: Acinetobacter baumannii, ATCC19606, read-out: MIC, A. baumannii ATCC 19606
[6] = molecular target: T1, PBP3 from Acinetobacter baumannii (ATCC 19606) (Acinetobacter baumannii, UniProt A0ABX6CK25); experiment: Bocillin-FL fluorescence polarization competition binding, A. baumannii PBP3; settings: fluorescence polarization competition binding assay using Bocillin-FL; read-out: A. baumannii PBP3 Potency
T1 sequence (A0ABX6CK25 64-610): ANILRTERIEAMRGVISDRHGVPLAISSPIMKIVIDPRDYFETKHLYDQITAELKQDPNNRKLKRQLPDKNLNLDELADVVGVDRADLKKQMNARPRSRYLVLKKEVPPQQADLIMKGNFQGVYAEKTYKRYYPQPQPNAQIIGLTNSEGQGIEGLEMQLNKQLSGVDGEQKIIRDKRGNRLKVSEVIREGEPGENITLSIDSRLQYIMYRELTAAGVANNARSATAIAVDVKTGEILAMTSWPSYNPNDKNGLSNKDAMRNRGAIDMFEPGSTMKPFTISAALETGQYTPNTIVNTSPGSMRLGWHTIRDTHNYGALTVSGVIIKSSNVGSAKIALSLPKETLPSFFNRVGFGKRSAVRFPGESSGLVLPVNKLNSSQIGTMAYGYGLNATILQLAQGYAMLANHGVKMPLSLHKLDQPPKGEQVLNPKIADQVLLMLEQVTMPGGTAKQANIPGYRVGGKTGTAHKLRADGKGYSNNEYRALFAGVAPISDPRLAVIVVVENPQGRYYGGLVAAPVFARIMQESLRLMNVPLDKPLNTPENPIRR
Text: (§1) To determine the ability of boronic acid-based test PBP inhibitors to bind Penicillin Binding Proteins (PBPs), Bocillin-FL (fluorescently-labeled penicillin V; ThermoFisher Scientific) was used in a fluorescence polarization (FP) competition binding assay to assess inhibitor binding to PBP3 from Escherichia coli (K-12), PBP3 from Pseudomonas aeruginosa (PAO1), PBP1a and PBP3 from Acinetobacter baumannii (ATCC 19606), and PBP2 from Neisseria gonorrhoeae (FA19). PBPs were cloned and purified as described previously (E. coli PBP3, King, D. T, et al., ACS Infectious Diseases 2015, 1, 175-184; P. aeruginosa PBP3, Han et. al., PNAS 2010, 107 (51), 22002-22007; A. baumannii PBPs, Penwell et. al., Antimicrob. Agents Chemother. 2015, 59 (3), 1680-1689; N. gonorrhoeae PBP2, Singh et. al., J. Biol. Chem. 2019, 294 (38), 14020-14032). To establish assay conditions for competition binding, enzyme titration/saturation binding experiments were initially performed. Bocillin-FL was prepared at 0.2 μM in a buffer comprised of 50 mM Hepes (pH 8.0), 300 mM NaCl and 10% (v/v) glycerol for reactions with E. coli, P. aeruginosa and N. gonorrhoeae PBPs, and 25 mM Tris (pH 8.0), 200 mM NaCl, 10% (v/v) glycerol and 0.005% (v/v) Tween 20 for reactions with A. baumannii PBPs. Saturation binding was performed by mixing 40 μl of PBP solutions ranging in concentrations from 0-24 μM with 40 μl of the 0.2 μM Bocillin-FL solution, in individual wells of a black 384-well microplate. FP was measured immediately upon mixing (Excitation, 490 nm; Emission, 520 nm; g-factor, 0.96), using a Cytation3 (BioTek) microplate reader and measured continuously for up to 120 minutes. The FP response stabilized after 15 minutes for P. aeruginosa and A. baumannii PBP3, 30 minutes for E. coli PBP3 and A. baumannii PBP1a, and less than 1 minute for N. gonorrhoeae PBP2. […] The competition binding assay (80 μl final volume) was validated using beta-lactams and PBPs at final concentrations of: 1.5 μM for E. coli PBP3; 0.75 μM for P. aeruginosa PBP3; 1 μM for A. baumannii PBP1a; 0.2 μM for A. baumannii PBP3; and 0.25 μM for N. gonorrhoeae PBP2. Bocillin-FL was at 0.1 μM (0.05 μM with A. baumannii PBP1a) and beta-lactam concentrations ranged from 0-1,000 μM. E. coli PBP3 was incubated with increasing concentrations of ampicillin in a black 384-well microplate (Corning) for 30 minutes. P. aeruginosa PBP3 was incubated for 15 minutes with aztreonam, whereas A. baumannii PBP1a and PBP3 were incubated for 15 minutes with meropenem, and then Bocillin-FL was added followed immediately by the FP measurement for up to 60 minutes. […] The beta-lactam potency was reported as the concentration of beta-lactam required to reduce the amount of PBP bound-Bocillin-FL by 50% (EC50). […] The EC50 of aztreonam was determined to be <0.5 μM for P. aeruginosa PBP3. […] Binding assays for boronic acid PBP inhibitors were performed in an identical fashion for the respective PBPs.

[7] = molecular target: T2, PBP3 from Pseudomonas aeruginosa (PAO1) (Pseudomonas aeruginosa, UniProt G3XD46); experiment: Bocillin-FL fluorescence polarization competition binding, P. aeruginosa PBP3; settings: Binding affinity to P. aeruginosa PBP3; fluorescence polarization competition binding assay using Bocillin-FL; read-out: P. aeruginosa PBP3 Potency
T2 construct: made in house
T2 sequence (G3XD46 whole entry): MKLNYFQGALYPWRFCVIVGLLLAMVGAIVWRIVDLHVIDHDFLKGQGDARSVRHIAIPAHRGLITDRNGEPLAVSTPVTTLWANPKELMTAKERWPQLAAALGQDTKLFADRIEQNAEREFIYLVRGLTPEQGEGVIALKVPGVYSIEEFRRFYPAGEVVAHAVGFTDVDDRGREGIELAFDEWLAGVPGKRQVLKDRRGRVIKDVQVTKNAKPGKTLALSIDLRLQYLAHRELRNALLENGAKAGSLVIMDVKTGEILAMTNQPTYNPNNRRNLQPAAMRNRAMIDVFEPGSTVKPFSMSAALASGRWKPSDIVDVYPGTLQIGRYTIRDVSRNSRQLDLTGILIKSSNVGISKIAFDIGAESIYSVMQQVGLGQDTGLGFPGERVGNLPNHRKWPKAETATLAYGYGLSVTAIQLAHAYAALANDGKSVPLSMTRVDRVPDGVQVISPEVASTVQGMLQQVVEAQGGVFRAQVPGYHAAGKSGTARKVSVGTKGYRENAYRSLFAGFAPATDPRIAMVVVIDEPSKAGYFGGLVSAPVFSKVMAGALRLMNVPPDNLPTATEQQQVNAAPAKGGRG
Text: as §1

[8] = tested on: P. aeruginosa CDC-0090; experiment: microbe, parasite or virus in culture; assay type: cell-based; settings: Pseudomonas aeruginosa, CDC0090, read-out: Minimum inhibitory concentration, P. aeruginosa CDC-0090
[9] = tested on: A. baumannii CDC-0045; experiment: microbe, parasite or virus in culture; assay type: cell-based; settings: Acinetobacter baumannii, CDC0045, read-out: MIC, A. baumannii CDC-0045
[10] = tested on: A. baumannii ATCC 17978; experiment: microbe, parasite or virus in culture; assay type: cell-based; settings: Acinetobacter baumannii, ATCC17978, read-out: MIC, A. baumannii ATCC 17978
[11] = tested on: A. baumannii CDC-0036; experiment: microbe, parasite or virus in culture; assay type: cell-based; settings: Acinetobacter baumannii, CDC0036, read-out: MIC, A. baumannii CDC-0036
[12] = tested on: A. baumannii 1258916; experiment: microbe, parasite or virus in culture; assay type: cell-based, Acinetobacter baumannii; settings: Acinetobacter baumannii, 1258916, read-out: MIC, A. baumannii 1258916
[13] = tested on: P. aeruginosa CDC-0110; experiment: microbe, parasite or virus in culture; assay type: cell-based; settings: Pseudomonas aeruginosa, CDC0110, read-out: Minimum inhibitory concentration, P. aeruginosa CDC-0110
[14] = tested on: B. thailandensis ATCC 700388; experiment: microbe, parasite or virus in culture; assay type: cell-based; settings: Burkholderia thailandensis, ATCC700388, read-out: Minimum inhibitory concentration (MIC), B. thailandensis ATCC 700388
[15] = tested on: A. baumannii CDC-0033; experiment: microbe, parasite or virus in culture; assay type: cell-based; settings: Acinetobacter baumannii, CDC0033, read-out: MIC, A. baumannii CDC-0033
[16] = tested on: B. humptydooensis ATCC BAA-2767; experiment: microbe, parasite or virus in culture; assay type: cell-based; settings: Burkholderia humptydooensis, ATCCBAA2767, read-out: Minimum inhibitory concentration (MIC), B. humptydooensis ATCC BAA-2767
[17] = tested on: P. aeruginosa CDC-0054; experiment: microbe, parasite or virus in culture; assay type: cell-based; settings: Pseudomonas aeruginosa, CDC0054, read-out: Minimum inhibitory concentration, P. aeruginosa CDC-0054

Row | SMILES | MIC [1] | MIC [2] | MIC [3] | MIC [4] | MIC [5] | IC50 [6] | IC50 [7] | MIC [8] | MIC [9] | MIC [10] | MIC [11] | MIC [12] | MIC [13] | MIC [14] | MIC [15] | MIC [16] | MIC [17]
1 | O=C(O)c1c(F)ccc2c1OB(O)[C@@H](NC(=O)[C@@H](NC(=O)N1CCN(Cc3ccc(O)c(O)c3Cl)C(=O)C1=O)c1cccc(P(=O)(O)O)c1)C2 (single isomer, unassigned) [Example 162] | 2 to 4 µg/mL (≈ 2.72 to 5.44 µM) | 8 to 16 µg/mL (≈ 10.9 to 21.8 µM) | 2 to 4 µg/mL (≈ 2.72 to 5.44 µM) | < 1 µg/mL | < 1 µg/mL | < 10 µM | 10 to 50 µM | 2 to 4 µg/mL (≈ 2.72 to 5.44 µM) | > 128 µg/mL | < 1 µg/mL | > 128 µg/mL | 32 to 64 µg/mL (≈ 43.6 to 87.1 µM) | 2 to 4 µg/mL (≈ 2.72 to 5.44 µM) | 8 to 16 µg/mL (≈ 10.9 to 21.8 µM) | > 128 µg/mL | < 1 µg/mL | 2 to 4 µg/mL (≈ 2.72 to 5.44 µM)
2 | O=C(O)c1c(F)ccc2c1OB(O)[C@@H](NC(=O)[C@@H](NC(=O)N1CCN(Cc3ccc(O)c(O)c3Cl)C(=O)C1=O)c1ccc(P(=O)(O)O)c(F)c1F)C2 [Example 165, (R)-3-((S)-2-(4-(2-chloro-3,4-dihydroxybenzyl)-2,3-dioxopiperazine-1-carboxamido)-2-(2,3-difluoro-4-phosphonophenyl)acetamido)-7-fluoro-2-hydroxy-3,4-dihydro-2H-benzo[e][1,2]oxaborinine-8-carboxylic acid] | 2 to 4 µg/mL (≈ 2.59 to 5.19 µM) | < 1 µg/mL | 2 to 4 µg/mL (≈ 2.59 to 5.19 µM) | < 1 µg/mL | < 1 µg/mL | < 10 µM | 10 to 50 µM | 2 to 4 µg/mL (≈ 2.59 to 5.19 µM) | < 1 µg/mL | < 1 µg/mL | > 128 µg/mL | 2 to 4 µg/mL (≈ 2.59 to 5.19 µM) | < 1 µg/mL | < 1 µg/mL | 32 to 64 µg/mL (≈ 41.5 to 83 µM) | < 1 µg/mL | < 1 µg/mL

— patent US20240270762A1, “PENICILLIN-BINDING PROTEIN INHIBITORS” (priority 2021, published 2024)
